# Assay results reported in patent publication EP0199238A1, “1,4-Dihydropyridine derivatives, process for their preparation and their use in medicaments” (BAYER AG, priority 1985, dated 1986).
# Tested on: SH-Ratte
# Test: Blood pressure measurement in conscious rats (tail cuff, oral administration)
# Format: in vivo
# Settings: Rattus norvegicus, oral by gavage, lowest dose that still gives at least 15 mm Hg fall in systolic blood pressure, read-out: Grenzdosis der antihypertensiven Wirkung
# Experimental: Blutdruckmessung bei wachen Ratten
# Meßmethode: In Anlehnung an das von Breuninger beschriebene Verfahren wird der Blutdruck am Schwanz der nicht narkotisierten Ratte unblutig mittels aufblasbarer Gummimanschette und Infraton-Pulsabnehmer D nach Boucke-Brecht gemessen. Die Tiere befinden sich während des ganzen Versuches, einschlieBlich einer 2-stündigen Vorperiode, einzeln in einem Wassermantel umgeben, auf ca. 30°C temperierten Kunststoffröhren. Die aufblasbare Gummimanschette sitzt an der Schwanzwurzel, der Pulsabnehmer 2-5 cm distal davon. Zur Erzielung gleichmäßiger Meßresultate ist für die wiederholten Messungen die Meßstelle am Schwanz mit Tusche markiert.
# Der gesamte Meßvorgang wird auf einem 2-Kanal-Direktschreiber oder einem Speicher-Oszillografen (Tektronix) registriert, im 1. Kanal die Pulsationen der Schwanzarterie, im 2. Kanal die Impulse eines Druckmarkengebers, der den jeweils in der Manschette herrschenden Druck anzeigt. Gemessen wird bei abfallendem Manschettendruck. Als Meßwert wird der in der Manschette herrschende Druck bei Wiederauftreten der Pulsationen benutzt. Er entspricht dem systolischen Blutdruck im Rattenschwanz. […]
# Bei der quantitativen Bestimmung von Dosis-Wirkungskurven wird für jedes Tier die Wirkung als mittlere prozentuale Blutdrucksenkung gegenüber dem Ausgangsblutdruck, gemittelt über den Versuchszeitraum von 6 Stunden, angegeben. […]
smiles,measurement,value
"COC(=O)C1=C(C)NC(C)=C(C(=O)OCC(C)(C)O)C1c1ccccc1[N+](=O)[O-] (stereo not shown) [Beispiel 3, 1,4-Dihydro-2,6-dimethyl-4-(2-nitrophenyl)-pyridin-3,5-dicarbonsäure-(2-hydroxy-2-methyl-propyl)-methyl-ester]",minimal effective dose,1 mg/kg
